Assay [1] relates to Hsp90 clients (C-Raf, Akt, ERK). Description: Western blotting of Hsp90 client proteins. Format: cell-based. Particulars: Western blot, 24 h; SK-BR-3, MDA-MB-231, MIA PaCa-2, HCC-44 (conglobatin A: MDA-MB-231). As to the method:
The cells were trypsinized, washed with PBS, and lysed in RIPA buffer (cat no. 89900, ThermoFisher Scientific) containing protease and phosphatase inhibitors (cat. no. A32959, ThermoFisher Scientific) and 1 mM phenylmethylsulfonyl fluoride (PMSF). The cells in the RIPA buffer were placed on ice for 20 min, and were then sonicated in ice cold water for 5 min. The lysates were centrifuged at 4 °C, and their protein was quantified using a BCA kit (cat. no. 23225, ThermoFisher Scientific). Equal amounts of protein were separated by 10% SDS-PAGE, and were then transferred onto a nitrocellulose membrane (cat. no. NBA 083C001EA, Protran) using a wet transfer system (Bio-Rad) or semidry Transferblot Turbo Transfer System (Bio-Rad). After the transfer, the membranes were blocked for 30 min in 5% skimmed milk dissolved in 1× TBST, and then incubated with 1:2000 primary antibodies in 5% BSA in TBST at 4 °C overnight.
The primary antibodies against HER-2 (cat no. MA5-140579) and Hsp70 (cat. no. MA3-006) were purchased from ThermoFisher Scientific; C-Raf (cat. no. sc-133); the galectin-3 (cat. no. sc-20157), Hsp90 (cat. no. sc-69703), Cdc37 (cat. no. sc-13129) were obtained from Santa Cruz Biotechnology; the Akt (cat. no. 9272S), ERK1/2 (cat. no. 9102S), and pERK1/2 (cat. no. 9101S) were obtained from Cell Signaling Technology; the HIF-1α (cat. no. NB-100-134) was obtained from Novus Biologicals; and the β-actin (cat. no. A1978) was obtained from Sigma-Aldrich.
The next day, the membranes were washed three times in TBST for 10 min, and then incubated with secondary antibodies (1:5000) diluted in 5% skimmed milk in TBST for 1 h at RT. As secondary antibodies, we employed HRP-conjugated anti-mouse (cat. no. sc-2954, Santa Cruz Biotechnology) and anti-rabbit antibodies (cat. no. HAF008, R&D System). The protein bands were detected with a ChemiDoc MP instrument (Bio-Rad) after treatment with an ECL reagent (cat. no. 170-5061, BioRad). All of the antigens and molecular weights in kDa are labelled next to the blots on the figures. Uncropped Western blot data are attached as Figure S6.
(In general: A western blot detects proteins with antibodies after separation by electrophoresis.)

The next assay addresses T1, N-Hsp90/Cdc37 (Homo sapiens, UniProt P07900).
T1 construct: only the N-terminal ATP-ase domain of Hsp90 (N-Hsp90, residues 1-223); expressed in transfected cells; host or cells: HEK293 EBNA cells, cleared lysates
Description: N-Hsp90/Cdc37 split Renilla luciferase assay (N-terminal Hsp90 fragment, residues 1-223). Format: biochemical. The note with it: cell lysate. As to the method:
(§1) The Hsp90/Cdc37 split Renilla luciferase assay using the full length Hsp90 for the compound screening was described previously. […] After 48 h, the cells were trypsinized and washed with PBS. The harvested cells were lysed in 1 mL of the 1x lysis buffer provided in the Renilla Luciferase Reporter Assay System Kit from Promega (cat. E2820), and were incubated on ice for 10 min. The cell lysates were then cleared by centrifugation at 13,000× g for 1 min. […] After this, the screening/test compounds or DMSO—as indicated—were added to each well. In total, 5 µL NRL-Hsp90- or NRL-N-Hsp90-lysate was added to each well, one row at a time. Subsequently, the plate was incubated for 5 min at room temperature (RT). […] Just before the reading, 20 µL assay buffer containing 2× Renilla luciferase substrate (coelenterazine) was added. For the FIMM screening, sample wells were read on a PHERAstar plate reader (BMG LABTECH) at a gain level of 4000, after 10 s shaking, using a hypomorph of NRL-Hsp90. For the subsequent validations of the compounds, sample wells with the above-described assay constructs were read using a synergy H1 Hybrid Multi-Mode reader (BioTek) in the luminescence detection mode, as described previously in detail.

The next assay relates to MDA-MB-231 cells. Nature of the assay: 2D cell proliferation (alamarBlue). The note with it: Homo sapiens, MDA-MB-231, 72 h. It counts as cell-based. As to the method:
Per well, 500–700 cells were seeded in 96-well flat bottom culture plates in 100 µL. After 24 h, the cells were treated with 0.1% DMSO vehicle control or test compounds diluted in a medium using a 1:2 dilution-series, starting at 100 µM. The plates were further incubated for 72 h. The cell viability was measured after the addition of 10% alamarBlue reagent per well (cat. no. DAL1100, Thermo Fisher Scientific). The fluorescence intensity (excitation 560 nm and emission 590 nm) was measured after 4 h by the use of a H1 Hybrid Multi-Mode reader.
In general terms: The colour change of resazurin is a common sign of viable cells or microbes.

Another assay concerns K-RasG12V nanoclustering. Description: K-RasG12V nanoclustering-FRET (FLIM-FRET) in HEK cells. It counts as cell-based. Particulars: 24 h, conglobatin A 2 μM, salinomycin 1.3 μM, 17-AAG 2 μM, CAY10585 10 μM, hit compounds indicated concentrations. As to the method: In total, 80,000 HEK cells were seeded in 12-well plates containing sterilized 16-mm coverslips and 1 mL medium. The next day, the cells were transfected using jetPRIME or FuGENE HD transfection reagent. For the donor fluorophore-only samples, the cells were transfected with 500 ng mGFP-tagged RasG12V plasmid. For the nanoclustering-FRET pair samples, the cells were transfected with both the donor and acceptor constructs, i.e., pmGFP- and pmCherry- RasG12V at a plasmid ratio of 1:3, respectively, and a total of 800 ng plasmids. The next day, the cells were treated with either 0.1% DMSO vehicle control or the indicated concentrations of compounds diluted in DMEM or RPMI medium for 24 h. For the gene silencing studies, the cells were transfected with the indicated amounts of siRNAs, together with the FRET pair constructs. The plasmids and siRNA were diluted in the same jetPRIME transfection buffer, followed by the addition of jetPRIME. […] The lifetime of the mGFP donor fluorophore was measured using a fluorescence microscope (Zeiss AXIO Observer D1) equipped with a fluorescence lifetime imaging attachment (Lambert Instruments), as described previously in detail. The apparent FRET efficiency (Eapp) was calculated as Eapp = (1 − τDA/τD) × 100%, with the measured fluorescence lifetimes τDA of the FRET sample and the τD of the donor-only sample.

The next assay deals with T2, Hsp90/Cdc37 (Homo sapiens, UniProt P07900).
T2 construct: The Hsp90/Cdc37 split Renilla luciferase assay using the full length Hsp90 for the compound screening was described previously; expressed in transfected cells; host or cells: HEK293 EBNA cells, cleared lysates
Nature of the assay: Hsp90/Cdc37 split Renilla luciferase assay, full length Hsp90 (cell lysate; IC50 and 20 μM validation). Particulars: for normalized RLU / Average RLU: MolPort Screening-3, tested concentration of drugs 20 μM; for normalized RLU: RLU normalized to DMSO (=1.00); for Average RLU: average of 3 wells (DMSO 248028); for IC50: full length Hsp90, split Renilla luciferase assay, cell lysate. Format: biochemical. On the procedure:
In the second in silico screening of the FIMM database, we employed the four identified chemical scaffolds (Figure S2B) for the visual inspection of the FIMM compound library. […] All of the purchased compounds were validated in vitro at 20 μM using the split Renilla luciferase assay.
as §1

With `C/C1=C\[C@H](C)C[C@H](C)[C@H](Cc2cnco2)OC(=O)/C(C)=C/[C@H](C)C[C@H](C)[C@H](Cc2cnco2)OC1=O` [conglobatin A, reference compound], the “expression of Hsp90 clients (C-Raf, Akt, ERK; pERK)” value (“expression of Hsp90 clients” for short) in assay [1] was “decreased pERK and Akt levels”. Also, the IC50 (as a rule, the concentration that gives 50% inhibition) at N-Hsp90/Cdc37 came to 4.5 ± 0.8 µM. In addition, the IC50 in the assay with MDA-MB-231 cells turned out to be 32 ± 2 µM. The “K-RasG12V nanoclustering-FRET” value in the assay with K-RasG12V nanoclustering is “selective inhibition of K-RasG12V-”. At Hsp90/Cdc37, the “normalized RLU” value is listed as 0.40, the “Average RLU” value is on record as 98821 RLU and the IC50 amounted to 23 ± 6 µM.

As for `N=C(CSS(=O)(=O)O)NCC12CC3CC(CC(C3)C1)C2` [×6506, [({N-[(adamantan-1-yl)methyl]carbamimidoyl}methyl)sulfanyl]sulfonic acid], the “expression of Hsp90 clients” value in assay [1] was “dose-dependently decreased”. For the same compound, the IC50 at N-Hsp90/Cdc37 was found to be 4.1 ± 0.4 µM. For the same compound, the IC50 in the assay with MDA-MB-231 cells was determined as 32.6 ± 0.5 µM. Further, the “K-RasG12V nanoclustering-FRET” value in the assay with K-RasG12V nanoclustering is “displayed K-Ras-selectivity”. Further, on Hsp90/Cdc37, the “normalized RLU” value is recorded as 0.11, the “Average RLU” value worked out at 26657 RLU and the IC50 stood at 5 ± 1 µM.

In the case of `CCOc1ccc(C(=O)c2ccc(O)c(O)c2O)cc1` [×1540, 2,3,4-TRIHYDROXY-4'-ETHOXYBENZOPHENONE], the “expression of Hsp90 clients” value in assay [1] is recorded as “dose-dependently decreased”. In addition, the half-maximal inhibitory concentration (IC50) on N-Hsp90/Cdc37 is 44 ± 9 µM; in the assay with MDA-MB-231 cells, 29 ± 3 µM; on Hsp90/Cdc37, 44 ± 18 µM. In the assay on K-RasG12V nanoclustering, the “K-RasG12V nanoclustering-FRET” value was “displayed K-Ras-selectivity”.

These data come from PMC7927014, “Novel Small Molecule Hsp90/Cdc37 Interface Inhibitors Indirectly Target K-Ras-Signaling” (Cancers, 2021).
